The compounds below were run on HT-29 cells (assay: Cellular RIP1 inhibitory activity: necroptosis of HT-29 cells induced by TNF-α/SMAC mimetic/zVAD-FMK, CellTiter-Glo viability). Details: Homo sapiens, HT-29, 20 h, read-out: EC50 (Cell activity; Necrosis or Necroptosis Inhibitory Activity).
Assay type: cell-based
Method: In Table 2, activity is provided as follows: +++=0.1 nM≤EC50<100 nM; ++=100 nM≤EC50K<1000 nM; +=1000 nM≤EC50K<10000 nM.
Compounds 1-67 (denoted as Compound Nos. 1 through 67 in Table 1) of the disclosure were tested for binding and cellular RIP1 inhibitory activity following the experimental procedures described below.
Cell line: HT-29 (ATCC® HTB-38™)
Culture medium: McCOY's 5A, Gibco, Cat No. 16600-082
DMSO: Sigma, Cat No. 67-68-5, 1 L
Assay plate: Corning #3903
Compound dilution plate: Corning #3357
Inducers: TNFα, GenScript, Cat No. Z01001-50,
SmacM, Cat. No., HY-15989, MedChemExpress (MCE)
Z_VAD FMK, TargetMol, T6013
Cell Titer-Glo® Luminescent Cell Viability Assay Kit: Promega, Cat No. G7573
1. HT-29 cells were checked every day to make sure that they were healthy and growing as expected. They were subjected to sub-culturing when they were approximately 80% confluent.
2. The culture medium, McCOY's 5A medium (Gibco, Cat No. 16600-082) with 10% fetal bovine serum or FBS (Gibco, Cat No. 10099-141C), was pre-warmed in a 37° C. water bath for at least 30 min.
3. When the cells had reached a desired level of confluency of 80% in a T75 flask, the medium was aspirated, and the cells were washed with warm phosphate buffered saline or PBS two times.
4. 2-3 ml fresh warm trypsin (Gibco, Cat No. 25200-056) solution was added to the washed cells. The flask with the cells was transferred to a 37° C. incubator.
5. After 5 minutes, the side of the flask was tapped, and the flask was examined under a microscope for detachment of the cells to the flask. If necessary, the cells were kept in the incubator for an additional 5-10 minutes, with occasional tapping, until lifting was complete.
6. The trypsin reaction was neutralized by transferring 6-9 ml cell culture medium to sterile 15 ml conical tubes, and by centrifuging the cell culture at 300×g for 7 minutes to pellet the cells (supernatant decanted).
7. The cells were resuspended in fresh cell culture medium and the cell counting was performed using a hemocytometer.
8. 100 μl of the resuspended cell culture medium containing ˜5,000 cells were transferred into each well of the sterile 96-well cell culture plate (Corning 3903) and cultured overnight at 37° C. with 5% CO2.
Compound Titration and Treatment
1. All test compounds were dissolved in DMSO (Dimethyl sulfoxide) to create a 20 mM stock.
2. 3 μl of each compound 20 mM stock was mixed with 27 μl DMSO, and the compound solution was further diluted at a titration ratio of 1:3 (20 μl compound solution+40 μl DMSO) till the 10 points end.
3. All culture medium was removed from assay plates filled with HT-29 cell cultures. The cells were then washed with 1 PBS, and resuspended in fresh, FBS-free McCOY's 5A medium containing a cocktail of TNF-α (10 ng/ml), a SMAC mimetic compound (6 μM) and Z-VAD-fluoromethylketone or zVAD-FMK (10 μM) to stimulate the HT-29 cells to increase RIP1 kinase levels and necroptosis.
4. 0.5 μL of the diluted compound solution was added to the corresponding 96-well assay plates.
5. The assay plates were incubated for 20 hours at 37° C. with 5% CO2.
1. The CellTiter-Glo® Luminescent Cell Viability Assay was employed to detect the ATP levels of viable HT-29 cells.
2. The CellTiter-Glo® buffer and the lyophilized substrate were equilibrated to room temperature prior to use.
3. The CellTiter-Glo® substrate was resuspended with CellTiter-Glo® buffer, then mixed by gently vortexing to obtain a homogeneous solution.
4. 20 μl the enzyme/substrate mixture was transferred by multi-channel pipetting into 96-well assay plates.
5. The assay plates were placed on an orbital shaker and the contents were shaken for 3 minutes to induce cell lysis.
6. The assay plates were incubated at room temperature for 10 minutes to stabilize the luminescent signal.
7. The luminescence signals were read and recorded with EnVision.
8. The geometric mean EC50 values were calculated from 10 points response dose with duplicates. […]

Structure (SMILES) | EC50
O=C(c1ccnc(N2CCN(C(=O)N3N=CC[C@H]3c3cc(F)cc(F)c3)CC2)n1)N1CCC1 [Compound 36, (S)-azetidin-1-yl(2-(4-(5-(3,5-difluorophenyl)-4,5-dihydro-1H-pyrazole-1-carbonyl)piperazin-1-yl)pyrimidin-4-yl)methanone] | 0.1 to 100 nM

Same assay, conditions: Homo sapiens; HT-29 cells; TNF-α 10 ng/ml, SMAC mimetic 6 μM, zVAD-FMK 10 μM; 20 hours; geometric mean, 10 points, duplicates; read-out: EC50 (Cell activity; Necrosis or Necroptosis Inhibitory Activity)

Structure (SMILES) | EC50
CC1(O)CN(C(=O)c2nc(N3CCN(C(=O)N4N=CC[C@H]4c4cc(F)cc(F)c4)CC3)ncc2F)C1 [Compound 50, (S)-(5-(3,5-difluorophenyl)-4,5-dihydro-1H-pyrazol-1-yl)(4-(5-fluoro-4-(3-hydroxy-3-methylazetidine-1-carbonyl)pyrimidin-2-yl)piperazin-1-yl)methanone] | 0.1 to 100 nM
COC1CN(C(=O)c2nc(N3CCN(C(=O)N4N=CC[C@H]4c4cc(F)cc(C#N)c4)CC3)ncc2F)C1 [Compound 51, (S)-3-fluoro-5-(1-(4-(5-fluoro-4-(3-methoxyazetidine-1-carbonyl)pyrimidin-2-yl)piperazine-1-carbonyl)-4,5-dihydro-1H-pyrazol-5-yl)benzonitrile] | 0.1 to 100 nM
N#C[C@@H]1CCN(C(=O)c2nc(N3CCN(C(=O)N4N=CC[C@H]4c4cc(F)cc(F)c4)CC3)ncc2F)C1 [Compound 16, (3R)-1-(2-(4-(5-(3,5-difluorophenyl)-4,5-dihydro-1H-pyrazole-1-carbonyl)piperazin-1-yl)-5-fluoropyrimidine-4-carbonyl)pyrrolidine-3-carbonitrile] | 0.1 to 100 nM
NC(=O)c1cncc(N2CCN(C(=O)N3N=CC[C@H]3c3cc(F)cc(F)c3)CC2)n1 [Compound 39, (S)-6-(4-(5-(3,5-difluorophenyl)-4,5-dihydro-1H-pyrazole-1-carbonyl)piperazin-1-yl)pyrazine-2-carboxamide] | 100 to 1000 nM
N#Cc1cc(F)cc([C@@H]2CC=NN2C(=O)N2CCN(c3ncc(F)c(C(=O)N4CC(OCC5CC5)C4)n3)CC2)c1 [Compound 59, (S)-3-(1-(4-(4-(3-(cyclopropylmethoxy)azetidine-1-carbonyl)-5-fluoropyrimidin-2-yl)piperazine-1-carbonyl)-4,5-dihydro-1H-pyrazol-5-yl)-5-fluorobenzo nitrile] | 0.1 to 100 nM
O=C(c1nc(N2CCN(C(=O)N3N=CC[C@H]3c3cc(F)cc(F)c3)CC2)ncc1F)N1CC(F)(F)C1 [Compound 12, (S)-(3,3-difluoroazetidin-1-yl)(2-(4-(5-(3,5-difluorophenyl)-4,5-dihydro-1H-pyrazole-1-carbonyl)piperazin-1-yl)-5-fluoropyrimidin-4-yl)methanone] | 0.1 to 100 nM
CC(C)OC1CN(C(=O)c2nc(N3CCN(C(=O)N4N=CC[C@H]4c4cc(F)cc(F)c4)CC3)ncc2F)C1 [Compound 24, (S)-(5-(3,5-difluorophenyl)-4,5-dihydro-1H-pyrazol-1-yl)(4-(5-fluoro-4-(3-isopropoxyazetidine-1-carbonyl)pyrimidin-2-yl)piperazin-1-yl)methanone] | 0.1 to 100 nM
COC1CN(C(=O)c2nc(N3CCN(C(=O)N4N=CC[C@H]4c4cncc(F)c4)CC3)ncc2Cl)C1 [Compound 64, (S)-(5-chloro-2-(4-(5-(5-fluoropyridin-3-yl)-4,5-dihydro-1H-pyrazole-1-carbonyl)piperazin-1-yl)pyrimidin-4-yl)(3-methoxyazetidin-1-yl)methanone] | 100 to 1000 nM
N#CC1CN(C(=O)c2nc(N3CCN(C(=O)N4N=CC[C@H]4c4cc(F)cc(F)c4)CC3)ncc2F)C1 [Compound 25, (S)-1-(2-(4-(5-(3,5-difluorophenyl)-4,5-dihydro-1H-pyrazole-1-carbonyl)piperazin-1-yl)-5-fluoropyrimidine-4-carbonyl)azetidine-3-carbonitrile] | 0.1 to 100 nM
N#Cc1cc(F)cc([C@@H]2CC=NN2C(=O)N2CCN(c3nccc(C(N)=O)n3)CC2)c1 [Compound 42, (S)-2-(4-(5-(3-cyano-5-fluorophenyl)-4,5-dihydro-1H-pyrazole-1-carbonyl)piperazin-1-yl)pyrimidine-4-carboxamide] | 0.1 to 100 nM
O=C(c1nc(N2CCN(C(=O)N3N=CC[C@H]3c3cc(F)cc(F)c3)CC2)ncc1F)N1CC(OC(F)(F)F)C1 [Compound 60, (S)-(5-(3,5-difluorophenyl)-4,5-dihydro-1H-pyrazol-1-yl)(4-(5-fluoro-4-(3-(trifluoromethoxy)azetidine-1-carbonyl)pyrimidin-2-yl)piperazin-1-yl)methanone] | 0.1 to 100 nM
O=C(c1nc(N2CCN(C(=O)N3N=CC[C@H]3c3cc(F)cc(F)c3)CC2)ncc1F)N1CCCC1 [Compound 8, (S)-(5-(3,5-difluorophenyl)-4,5-dihydro-1H-pyrazol-1-yl)(4-(5-fluoro-4-(pyrrolidine-1-carbonyl)pyrimidin-2-yl)piperazin-1-yl)methanone] | 0.1 to 100 nM
CC1CN(C(=O)c2nc(N3CCN(C(=O)N4N=CC[C@H]4c4cc(F)cc(F)c4)CC3)ncc2F)C1 [Compound 56, (S)-(5-(3,5-difluorophenyl)-4,5-dihydro-1H-pyrazol-1-yl)(4-(5-fluoro-4-(3-methylazetidine-1-carbonyl)pyrimidin-2-yl)piperazin-1-yl)methanone] | 0.1 to 100 nM
O=C(c1nc(N2CCN(C(=O)N3N=CC[C@H]3c3cc(F)cc(F)c3)CC2)ncc1F)N1CCCCC1 [Compound 17, (5-(3,5-difluorophenyl)-4,5-dihydro-1H-pyrazol-1-yl)(4-(5-fluoro-4-(piperidine-1-carbonyl)pyrimidin-2-yl)piperazin-1-yl)methanone] | 0.1 to 100 nM
O=C(O)c1ccnc(N2CCN(C(=O)N3N=CC[C@H]3c3cc(F)cc(F)c3)CC2)n1 [Compound 44, (S)-2-(4-(5-(3,5-difluorophenyl)-4,5-dihydro-1H-pyrazole-1-carbonyl)piperazin-1-yl)pyrimidine-4-carboxylic acid] | 1000 to 10000 nM
CCOC(=O)c1nc(N2CCN(C(=O)N3N=CC[C@H]3c3cc(F)cc(F)c3)CC2)ncc1F [Compound 47] | 0.1 to 100 nM
CN(C)C1CN(C(=O)c2nc(N3CCN(C(=O)N4N=CC[C@H]4c4cc(F)cc(F)c4)CC3)ncc2F)C1 [Compound 33, (S)-(5-(3,5-difluorophenyl)-4,5-dihydro-1H-pyrazol-1-yl)(4-(4-(3-(dimethylamino)azetidine-1-carbonyl)-5-fluoropyrimidin-2-yl)piperazin-1-yl)methanone] | 0.1 to 100 nM
O=C(NCCN1CCOCC1)c1ccnc(N2CCN(C(=O)N3N=CC[C@H]3c3cc(F)cc(F)c3)CC2)n1 [Compound 45, (S)-2-(4-(5-(3,5-difluorophenyl)-4,5-dihydro-1H-pyrazole-1-carbonyl)piperazin-1-yl)-N-(2-morpholinoethyl)pyrimidine-4-carboxamide] | 100 to 1000 nM
NC(=O)C1CN(C(=O)c2nc(N3CCN(C(=O)N4N=CC[C@H]4c4cc(F)cc(F)c4)CC3)ncc2F)C1 [Compound 30, (S)-1-(2-(4-(5-(3,5-difluorophenyl)-4,5-dihydro-1H-pyrazole-1-carbonyl)piperazin-1-yl)-5-fluoropyrimidine-4-carbonyl)azetidine-3-carboxamide] | 0.1 to 100 nM
O=C(c1nc(N2CCN(C(=O)N3N=CC[C@H]3c3cc(F)cc(F)c3)CC2)ncc1F)N1CC=CC1 [Compound 61, (S)-(5-(3,5-difluorophenyl)-4,5-dihydro-1H-pyrazol-1-yl)(4-(4-(2,5-dihydro-1H-pyrrole-1-carbonyl)-5-fluoropyrimidin-2-yl)piperazin-1-yl)methanone] | 0.1 to 100 nM

Source: patent US12612388B2, “Receptor-interacting protein 1 inhibitors including piperazine heterocyclic amide ureas” (SIRONAX LTD., priority 2020, dated 2026)
